Measured values reported in patent US12319750B2, “Hexokinase 2-specific inhibitors for use in acute central nervous system injury” (GUANGZHOU CELLPROTEK PHARMACEUTICAL CO., LTD, priority 2017, dated 2025).

Assays:
BV2 microglia cells [1] = test: Proinflammatory cytokine protein expression under hypoxia; assay type: cell-based, mouse; conditions: 2-DG, BV 2 cells under hypoxia
Protocol: b) Protein extraction and proinflammatory cytokine protein expression assay: After incubated in 35 mm culture dishes and placed for 24 hours, the cells were subject to hypoxia treatment for indicated time. The total cellular protein was then extracted to detect protein expression of the proinflammatory cytokines TNF-α, IL-1β and IL-6.

BV2 microglia cells [2] = test: Hypoxia-induced microglial activation (morphological changes) in BV2 cells; assay type: cell-based, mouse
Protocol: a) Cell culture: BV2 cells were grown in DMEM containing 10% fetal bovine serum (FBS), placed in 5% CO2, cultured in a 37° C. constant temperature incubator (relative humidity was 95%), and observed under inverted microscope. Passage was performed approximately 2-3 days, and logarithmic growth phase cells were used for formal experiments. The cells in the hypoxic treatment group were placed in the Coy anoxic chamber with 1% 02, 5% CO2, and 94% N2; other conditions were the same as normal culture conditions.
(§1) b) RNA interference: Cells were seeded in a 35 mm culture dish for 24 hours. Short-interfering RNAs (siRNAs) were transfected with RNAiMAX Reagent. Scrambled RNA was used as a control. In total, 50 nM siRNAs were transfected into the cultures, and after 12 hours, the medium was replaced with fresh medium. Cells were then stimulated with hypoxia for 24 hours to detect the expression level of the indicated proteins.
a) Cell culture: BV2 cells were grown in DMEM containing 10% fetal bovine serum (FBS), placed in 5% CO2, cultured in a 37° C. constant temperature incubator (relative humidity was 95%), and observed under inverted microscope. Passage was performed approximately 2-3 days, and logarithmic growth phase cells were used for formal experiments.

I11b promoter = test: Chromatin immunoprecipitation (ChIP): acetylated histones at I11b promoter; assay type: cell-based, mouse; conditions: pretreatment 1 hour prior to 6 hours hypoxic exposure
Protocol: d) Chromatin immunoprecipitation (ChIP) assay: BV 2 cells were treated with dimethylsulfoxide or lonidamine for 1 hour prior to 6 hours hypoxic exposure. Then, cells were cross-linked with a 1% formaldehyde solution (Sigma, F8775) for 10 minutes at 37° C. Cell lysates were sonicated to generate 100-1000 bp DNA fragments. Samples were diluted, and 10% of the total amount was retained for input. The remaining portions of each sample were pre-cleared, and anti-H3 or anti-H4 antibodies were added; a normal rabbit IgG antibody was simultaneously used as the negative control. The next day, protein G agarose was added and samples were washed after 2 hours of incubation. Cross-links were then reversed by incubation at 65° C. for 4 hours in 0.2 M NaCl. DNAs were extracted from the input and IP samples, and qPCR assays were performed. The […] promoter primer sequences were as follows: [NT] (forward) (SEQ ID NO. 19) and [NT] (reverse) (SEQ ID NO. 20).

primary microglia (pMG) [3] = test: CD 11b expression in hypoxia-stimulated primary microglia; assay type: cell-based, mouse; conditions: lonidamine 50 μM, DMSO as solvent
Protocol: For the isolation and culture of primary microglia, cells were isolated from newborn C57BL/6J mice. Briefly, cerebral cortices devoid of meninges and blood vessels were dissociated from P0-2 mice and digested by 0.125% trypsin at 37° C. for 15 minutes. The digestion was terminated by addition of DMEM containing 10% FBS and isolated single cells were seeded in culture dishes. After the mixed cultures became confluent, microglia were separated from other cell types by slight shaking and purification was identified by the microglial-specific marker CD 11b. b) CD 11b expression detected by Immunofluorescence: BV2 cells were seeded in a laser confocal-specific culture plate, and treated with hypoxia for 24 hours, fixed in 4% paraformaldehyde at room temperature for 20 minutes, and then washed three times with PBST for 5 minutes each time. After washing, CD 11b antibody diluted with DAKO antibody dilution was added and incubated overnight at 4° C. The next day, the samples were incubated with indicated fluorescently labeled secondary antibody at 37° C. for 1 hour.

primary microglia (pMG) [4] = test: Hypoxia-induced microglial activation (morphological changes) in primary microglia; assay type: cell-based, mouse; conditions: lonidamine 50 μM
Protocol: For the isolation and culture of primary microglia, cells were isolated from newborn C57BL/6J mice. Briefly, cerebral cortices devoid of meninges and blood vessels were dissociated from P0-2 mice and digested by 0.125% trypsin at 37° C. for 15 minutes. The digestion was terminated by addition of DMEM containing 10% FBS and isolated single cells were seeded in culture dishes. After the mixed cultures became confluent, microglia were separated from other cell types by slight shaking and purification was identified by the microglial-specific marker CD 11b.

BV2 microglia cells [5] = test: CD 11b expression in hypoxia-stimulated BV2 cells; assay type: cell-based, mouse; conditions: lonidamine 50 μM, DMSO as solvent
Protocol: (§2) c) CD 11b expression detected by Immunofluorescence: BV2 cells were seeded in a laser confocal-specific culture plate, and treated with hypoxia for 24 hours, fixed in 4% paraformaldehyde at room temperature for 20 minutes, and then washed three times with PBST for 5 minutes each time. After washing, CD 11b antibody diluted with DAKO antibody dilution was added and incubated overnight at 4° C. The next day, the samples were incubated with indicated fluorescently labeled secondary antibody at 37° C. for 1 hour.
as §1
as §2, with “b)” for “c)”, “The next day, the samples were incubated with indicated fluorescently labeled secondary antibody at 37° C. for 1 hour.” left out

BV 2 cells [6] = test: qRT-PCR of proinflammatory cytokine mRNA under hypoxia; assay type: cell-based, mouse; conditions: lonidamine 50 μM, 3-BrPA 10 μM; for 116 expression (mRNA) / Tnfa expression (mRNA): hypoxia
Protocol: Next, quantitative reverse transcription polymerase chain reaction assays were performed to examine the mRNA levels of several proinflammatory cytokines in the presence or absence of HK2 inhibitors. […] Chromatin immunoprecipitation assays were carried out to examine endogenous binding of acetylated histones to I11b promoter. The binding of AcH3 and AcH4 to the I11b promoter increased during hypoxia, whereas it could be decreased by pretreatment with lonidamine (FIG. 7F).

[7] = system: middle cerebral artery occlusion (MCAo) rats; test: Rat MCAo model, infarct volume by TTC staining; assay type: in vivo; conditions: 10 mg/kg two hours after operation; measured 24 hours after reperfusion
BV 2 cells [8] = test: Metabolite profiling: acetyl-coenzyme A accumulation under hypoxia; assay type: cell-based, mouse; conditions: lonidamine 50 μM, BrPA 10 μM; hypoxia 6 hours
Protocol: c) Metabolite profiling: BV2 cells were seeded in a 60 mm culture dish and cultured for 24 hours and then cultured in normoxic or hypoxic conditions for 6 hours. Metabolites were extracted using 1.5 mL of ice-cold 80% methanol. After incubation at −80° C. for 30 minutes, cells were scrapped and centrifuged at 14,000 g for 15 min at 4° C. The upper methanol/water phase were transferred into new tubes and incubated at −80° C. for another 30 minutes. The upper phases were centrifuged and dried under nitrogen gas and dried samples were stored at −80° C. prior to LC-MS analysis.

SMILES	production of proinflammation cytokines (BV2 microglia cells [1])	percentage of BV 2 cells with activated morphological changes (BV2 microglia cells [2]; 500 μM 2-DG, hypoxia 1% oxygen)	binding of AcH3 to the I11b promoter during hypoxia (I11b promoter)	binding of AcH4 to the I11b promoter during hypoxia (I11b promoter)	CD 11b expression, pMG cells (immunofluorescence) (primary microglia (pMG) [3])	activated state of pMG cultures during hypoxia (primary microglia (pMG) [4])	CD 11b expression, BV 2 cells (immunofluorescence) (BV2 microglia cells [5])	hypoxia-induced I11b expression at the mRNA level (BV 2 cells [6])	116 expression (mRNA) (BV 2 cells [6])	Tnfa expression (mRNA) (BV 2 cells [6])	infarct size [7]	activated state of BV 2 cultures during hypoxia (BV2 microglia cells [2]; lonidamine 50 μM)	hypoxia-induced accumulation of acetyl-coenzyme A (BV 2 cells [8])
O=CC[C@@H](O)[C@H](O)[C@H](O)CO [2-deoxyglucose, 2-deoxy-D-glucose]	significantly impaired	significantly decreased	–	–	–	–	–	–	–	–	–	–	–
O=C(O)c1nn(Cc2ccc(Cl)cc2Cl)c2ccccc12 [Lonidamine]	–	–	decreased	decreased	reduction	markedly inhibited	reduction	dramatically inhibited	no effect	no effect	significantly reduced	markedly inhibited	remarkably impaired
O=C(O)C(=O)CBr [3-Br-pyruvate, 3-bromopyruvate]	–	–	–	–	–	–	–	dramatically inhibited	no effect	no effect	–	–	remarkably impaired
